# Source: patent US20240228488A1 (TAKEDA PHARMACEUTICAL COMPANY LIMITED, priority 2021, published 2024)
# Assays:
# plasma kallikrein = molecular target: T1, plasma kallikrein (Homo sapiens, UniProt P03952); assay: Neat human plasma assay, FXIIa contact pathway-activated, PFR-AMC substrate; type: biochemical; details: citrated human plasma 78% final, 10 nM human FXIIa, 100 μM PFR-AMC; read-out: Human Plasma Assay: IC90
# T1 construct: from tissue
# Method in brief: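 Compound inhibition of plasma kallikrein measured as PFR-AMC (100 μM) cleavage rate over 5 min at room temperature in 78% citrated human plasma activated with 10 nM FXIIa (Tris pH 7.5 buffer). IC50/IC90 from 4-parameter fit of rate versus inhibitor concentration.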
# [1] = molecular target: human activated kallikrein enzyme (Homo sapiens, UniProt P03952); assay: Plasma kallikrein inhibition, fluorogenic PFR-AMC substrate, 500 pM activated kallikrein format; type: biochemical; details: 500 pM activated kallikrein, 300 uM PFR-AMC, 30 min preincubation, 10 min reaction; read-out: Primary Dose Response Assay: Average EC50
# human activated kallikrein enzyme, sequence (P03952 391-638 limits assumed): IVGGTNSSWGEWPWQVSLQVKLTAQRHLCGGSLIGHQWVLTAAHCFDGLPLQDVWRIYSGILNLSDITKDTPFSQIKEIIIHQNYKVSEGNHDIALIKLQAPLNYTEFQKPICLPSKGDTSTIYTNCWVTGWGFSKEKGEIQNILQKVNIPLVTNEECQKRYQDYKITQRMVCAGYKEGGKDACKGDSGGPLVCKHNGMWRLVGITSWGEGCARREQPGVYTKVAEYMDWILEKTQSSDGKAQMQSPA
# human activated kallikrein enzyme, sequence (P03952 20-390 partner limits assumed): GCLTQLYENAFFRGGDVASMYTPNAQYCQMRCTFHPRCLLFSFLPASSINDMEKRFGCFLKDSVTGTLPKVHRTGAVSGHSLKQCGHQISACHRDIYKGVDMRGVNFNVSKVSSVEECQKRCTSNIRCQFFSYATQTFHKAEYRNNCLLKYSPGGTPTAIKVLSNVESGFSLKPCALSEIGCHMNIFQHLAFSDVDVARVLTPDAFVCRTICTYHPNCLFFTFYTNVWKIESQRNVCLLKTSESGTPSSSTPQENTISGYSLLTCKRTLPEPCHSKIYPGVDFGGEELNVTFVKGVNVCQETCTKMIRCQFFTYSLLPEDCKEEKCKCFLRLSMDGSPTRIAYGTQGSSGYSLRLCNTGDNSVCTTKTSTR
# Method in brief: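 Fluorescence (ex 380/em 460 nm) is read after 10 min of 300 uM PFR-AMC turnover by 500 pM enzyme at RT. Compounds sit with enzyme for 30 min beforehand. Buffer is Tris (pH 7.5) with EDTA, NaCl, PEG-400 and Triton X-100; EC50 values are banded.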
# T1 sequence (P03952 391-638 limits assumed): as the sequence (P03952 391-638 limits assumed) above
# T1 sequence (P03952 20-390 partner limits assumed): as the sequence (P03952 20-390 partner limits assumed) above
SMILES,IC90 (plasma kallikrein) [nM],EC50 [1] [nM]
"Cc1ccnc([C@H]2C[C@@H]2C(=O)Nc2cc(OC(C)c3cn4cc(C5CC5)cc(N5CC(=O)N(C)C5=O)c4n3)ncn2)n1 (stereo partly drawn) [Example 549, (1S,2S)—N-(6-(1-(6-cyclopropyl-8-(3-methyl-2,4-dioxoimidazolidin-1-yl)imidazo[1,2-a]pyridin-2-yl)ethoxy)pyrimidin-4-yl)-2-(4-methylpyrimidin-2-yl)cyclopropane-1-carboxamide]",400 to 1500,< 1
"Cc1nccc([C@H]2C[C@@H]2C(=O)Nc2cc(NCc3cn4cc(C5CC5)cc(N5CC(=O)N(C)C5=O)c4n3)ncn2)n1 (racemic) [Example 499, rac-(1S*,2S*)-N-(6-(((6-cyclopropyl-8-(3-methyl-2,4-dioxoimidazolidin-1-yl)imidazo[1,2-a]pyridin-2-yl)methyl)amino)pyrimidin-4-yl)-2-(2-methylpyrimidin-4-yl)cyclopropane-1-carboxamide]",400 to 1500,1 to 10
"O=C(Nc1cc(NCc2cn3cc(C4CC4)cc(N4CCN5CCC4C5)c3n2)ccn1)[C@H]1C[C@@H]1c1cccc(Cl)c1 (stereo partly drawn) [Example I-23, (1S,2S)-N-(4-(((8-(1,4-diazabicyclo[3.2.1]octan-4-yl)-6-cyclopropylimidazo[1,2-a]pyridin-2-yl)methyl)amino)pyridin-2-yl)-2-(3-chlorophenyl)cyclopropane-1-carboxamide]",400 to 1500,< 1
"Cc1ccnc([C@H]2C[C@@H]2C(=O)Nc2cc(NCc3cn4cc(C5CC5)ccc4n3)ccn2)n1 (racemic) [Example 414, rac-(1S*,2S*)-N-(4-(((6-cyclopropylimidazo[1,2-a]pyridin-2-yl)methyl)amino)pyridin-2-yl)-2-(4-methylpyrimidin-2-yl)cyclopropane-1-carboxamide]",10000 to 48000,< 1
"CN1C(=O)CN(c2cc(C3CC3)cn3cc(CNc4cc(NC(=O)[C@H]5C[C@@H]5c5nccc(CF)n5)ncn4)nc23)C1=O (racemic) [Example I-163, rac-(1S*,2S*)-N-(6-(((6-cyclopropyl-8-(3-methyl-2,4-dioxoimidazolidin-1-yl)imidazo[1,2-a]pyridin-2-yl)methyl)amino)pyrimidin-4-yl)-2-(4-(fluoromethyl)pyrimidin-2-yl)cyclopropane-1-carboxamide]",400 to 1500,< 1
"Cc1ccnc([C@H]2C[C@@H]2C(=O)Nc2ncc(F)c(NCc3cn4cc(C5CC5)cc(N5CC(=O)N(C)C5=O)c4n3)n2)n1 (racemic) [Example 517, rac-(1S*,2S*)-N-(4-(((6-cyclopropyl-8-(3-methyl-2,4-dioxoimidazolidin-1-yl)imidazo[1,2-a]pyridin-2-yl)methyl)amino)-5-fluoropyrimidin-2-yl)-2-(4-methylpyrimidin-2-yl)cyclopropane-1-carboxamide]",< 400,< 1
"Cc1ccnc([C@H]2C[C@@H]2C(=O)Nc2cc(NCc3cn4cc(C5CC5)cc(N5CC(=O)N(C)C5=O)c4n3)c(C(F)(F)F)nn2)n1 [Example I-640, (1S,2S)—N-(5-(((6-cyclopropyl-8-(3-methyl-2,4-dioxoimidazolidin-1-yl)imidazo[1,2-a]pyridin-2-yl)methyl)amino)-6-(trifluoromethyl)pyridazin-3-yl)-2-(4-methylpyrimidin-2-yl)cyclopropane-1-carboxamide]",< 400,< 1
"Cc1ccnc([C@H]2C[C@@H]2C(=O)Nc2cc(NCc3cn4cc(C5CC5)cc(N5CC(=O)N(C)C5=O)c4n3)nc(C3CC3)n2)n1 [Example 410, (1S,2S)-N-(2-cyclopropyl-6-(((6-cyclopropyl-8-(3-methyl-2,4-dioxoimidazolidin-1-yl)imidazo[1,2-a]pyridin-2-yl)methyl)amino)pyrimidin-4-yl)-2-(4-methylpyrimidin-2-yl)cyclopropane-1-carboxamide]",< 400,< 1
"O=C(Nc1cc(NCc2cn3cc(C4CC4)cc(N4CCCC4=O)c3n2)ncn1)[C@H]1C[C@@H]1c1cccc(Cl)c1 [Example 144, (1S,2S)-2-(3-chlorophenyl)-N-(6-(((6-cyclopropyl-8-(2-oxopyrrolidin-1-yl)imidazo[1,2-a]pyridin-2-yl)methyl)amino)pyrimidin-4-yl)cyclopropane-1-carboxamide]",400 to 1500,< 1
"Cc1ccnc([C@H]2C[C@@H]2C(=O)Nc2ncnc(NCc3cn4cc(C5CC5)cc(N5CC(=O)N(C)C5=O)c4n3)c2F)n1 (racemic) [Example 412, rac-(1S*,2S*)-N-(6-(((6-cyclopropyl-8-(3-methyl-2,4-dioxoimidazolidin-1-yl)imidazo[1,2-a]pyridin-2-yl)methyl)amino)-5-fluoropyrimidin-4-yl)-2-(4-methylpyrimidin-2-yl)cyclopropane-1-carboxamide]",400 to 1500,1 to 10
"Cc1ccnc([C@H]2C[C@@H]2C(=O)Nc2cc(N[C@H](C)c3cn4cc(C(C)C)cc(N5CC(=O)N(C)C5=O)c4n3)ncn2)n1 [Example I-679, (1S,2S)—N-(6-(((R)-1-(6-isopropyl-8-(3-methyl-2,4-dioxoimidazolidin-1-yl)imidazo[1,2-a]pyridin-2-yl)ethyl)amino)pyrimidin-4-yl)-2-(4-methylpyrimidin-2-yl)cyclopropane-1-carboxamide]",< 400,< 1
"Cc1ccnc([C@H]2C[C@@H]2C(=O)Nc2cc(OCc3cn4cc(C5CC5)cc(N5CC(=O)N(CCOCc6ccccc6)C5=O)c4n3)ncn2)n1 (racemic) [Example 31, rac-(1S*,2S*)—N-(6-((8-(3-(2-(benzyloxy)ethyl)-2,4-dioxoimidazolidin-1-yl)-6-cyclopropylimidazo[1,2-a]pyridin-2-yl)methoxy)pyrimidin-4-yl)-2-(4-methylpyrimidin-2-ylcyclopropane-1-carboxamide]",10000 to 48000,1 to 10
"Cc1ccnc([C@H]2C[C@@H]2C(=O)Nc2cc(N(C)Cc3cn4cc(C5CC5)cc(N5CC(=O)NC5=O)c4n3)nc(C3CC3)n2)n1 [Example 408, (1S,2S)-N-(2-cyclopropyl-6-(((6-cyclopropyl-8-(2,4-dioxoimidazolidin-1-yl)imidazo[1,2-a]pyridin-2-yl)methyl)(methyl)amino)pyrimidin-4-yl)-2-(4-methylpyrimidin-2-yl)cyclopropane-1-carboxamide]",400 to 1500,1 to 10
"N#Cc1ccc(Cl)cc1[C@@H]1C[C@H]1C(=O)Nc1cc(NCc2cn3cc(C4CC4)cc(CO)c3n2)ccn1 (racemic) [Example 100, rac-(1S*,2S*)-2-(5-chloro-2-cyanophenyl)-N-(4-(((6-cyclopropyl-8-(hydroxymethyl)imidazo[1,2-a]pyridin-2-yl)methyl)amino)pyridin-2-yl)cyclopropane-1-carboxamide]",10000 to 48000,< 1
"Cc1ccnc([C@H]2C[C@@H]2C(=O)Nc2ncc(C(F)(F)F)c(NCc3cn4cc(C5CC5)cc(N5CC(=O)N(C)C5=O)c4n3)n2)n1 (racemic) [Example 518, rac-(1S*,2S*)-N-(4-(((6-cyclopropyl-8-(3-methyl-2,4-dioxoimidazolidin-1-yl)imidazo[1,2-a]pyridin-2-yl)methyl)amino)-5-(trifluoromethyl)pyrimidin-2-yl)-2-(4-methylpyrimidin-2-yl)cyclopropane-1-carboxamide]",< 400,< 1
"Cc1ccnc([C@H]2C[C@@H]2C(=O)Nc2cc(N(C)Cc3cn4cc(C5CC5)cc(N5CC(=O)N(C)C5=O)c4n3)ncn2)n1 (racemic) [Example 387, rac-(1S*,2S*)-N-(6-(((6-cyclopropyl-8-(3-methyl-2,4-dioxoimidazolidin-1-yl)imidazo[1,2-a]pyridin-2-yl)methyl)(methyl)amino)pyrimidin-4-yl)-2-(4-methylpyrimidin-2-yl)cyclopropane-1-carboxamide]",< 400,< 1
"CS(=O)(=O)c1cc(C2CC2)cn2cc(CNc3ccnc(NC(=O)[C@H]4C[C@@H]4c4cccc(Cl)c4)c3)nc12 [Example I-235, (1S,2S)-2-(3-chlorophenyl)-N-(4-(((6-cyclopropyl-8-(methylsulfonyl)imidazo[1,2-a]pyridin-2-yl)methyl)amino)pyridin-2-yl)cyclopropane-1-carboxamide]",400 to 1500,< 1
"N#CCCc1cc(C2CC2)cn2cc(COc3ccnc(NC(=O)[C@H]4C[C@@H]4c4cccc(Cl)c4)c3)nc12 (racemic) [Example 566, rac-(1S*,2S*)-2-(3-chlorophenyl)-N-(4-((8-(2-cyanoethyl)-6-cyclopropylimidazo[1,2-a]pyridin-2-yl)methoxy)pyridin-2-yl)cyclopropane-1-carboxamide]",10000 to 48000,1 to 10
"Cc1ccnc([C@H]2C[C@@H]2C(=O)Nc2cc(NCc3cn4cc(C5CC5)cc(N5CCOC5=O)c4n3)ncn2)n1 (racemic) [Example 390, rac-(1S*,2S*)-N-(6-(((6-cyclopropyl-8-(2-oxooxazolidin-3-yl)imidazo[1,2-a]pyridin-2-yl)methyl)amino)pyrimidin-4-yl)-2-(4-methylpyrimidin-2-yl)cyclopropane-1-carboxamide]",< 400,< 1
"O=C(Nc1cc(NCc2cn3cc(C4CC4)cc(N4CCN(C5COC5)CC4)c3n2)ncn1)[C@H]1C[C@@H]1c1cccc(Cl)c1 [Example I-202, (1S,2S)-2-(3-chlorophenyl)-N-(6-(((6-cyclopropyl-8-(4-(oxetan-3-yl)piperazin-1-yl)imidazo[1,2-a]pyridin-2-yl)methyl)amino)pyrimidin-4-yl)cyclopropane-1-carboxamide]",400 to 1500,1 to 10
